Results as given in PMC7125588 (Tetrahedron, 2011).

Assays:
influenza A (H1N1) = assay: microbe, parasite or virus in culture; type: cell-based; conditions: H1N1, MDCK, read-out: Anti-influenza EC50 A (H1N1)
influenza virus A = assay: Anti-influenza virus A activity as summarised in the text; type: cell-based; conditions: conclusions
influenza B virus = assay: microbe, parasite or virus in culture; type: cell-based; conditions: MDCK, read-out: Anti-influenza EC50 B
MDCK cell cultures = conditions: for Cytotoxicity MCC: dog
influenza A (H3N2) = assay: microbe, parasite or virus in culture; type: cell-based; conditions: H3N2, MDCK, read-out: Anti-influenza EC50 A (H3N2)
in vitro = conditions: dog

Row | SMILES | EC50 (influenza A (H1N1)) | Anti-influenza virus A activity (in words) (influenza virus A) | EC50 (influenza B virus) | Toxicity (in words) (MDCK cell cultures; Table 2) | Cytotoxicity MCC (MDCK cell cultures) | EC50 (influenza A (H3N2)) | CC50 (in vitro)
1 | Nc1nc(P(=O)(O)O)nc(N)c1Cl [7a, 4,6-Diamino-5-chloropyrimidin-2-ylphosphonic acid] | 50 ± 14 µM | middle micromolar range | 72 ± 68 µM | no toxicity | >100 µM | 28 ± 10 µM | > 100 µM
2 | NC12CC3CC(CC(C3)C1)C2 [Amantadine] | 36.8 ± 2.6 µM | – | > 200 µM | – | >100 µM | > 200 µM | > 100 µM
3 | CCOC(=O)C1=C[C@@H](OC(CC)CC)[C@H](NC(C)=O)[C@@H](N)C1 [Oseltamivir] | […] | – | 26 ± 27.7 µM | – | >100 µM | […] | > 100 µM
4 | NC(=O)c1ncn([C@@H]2O[C@H](CO)[C@@H](O)[C@H]2O)n1 [Ribavirin] | 9.2 ± 0.8 µM | – | 5.6 ± 2.8 µM | – | >100 µM | 8.7 ± 3.8 µM | > 100 µM
5 | CC(N)C12CC3CC(CC(C3)C1)C2 (stereo not drawn) [Rimantadine] | 13.2 ± 0.2 µM | – | > 500 µM | – | >100 µM | > 500 µM | > 100 µM
